Reference: BindingDB's records for doi:10.1016/j.chembiol.2011.11.010 (Harvard Medical School, 2012)

Tests used:
Assay in all cases: JNK Kinase Assay
[1] = target: Mitogen-activated protein kinase 10 (Homo sapiens, UniProt P53779)
Excerpt: (§1) The binding results were confirmed by measuring IC50 for the inhibition of JNK kinase activity by using Z'-LYTE assay format.

[2] = target: Mitogen-activated protein kinase 9 (Homo sapiens, UniProt P45984)
Excerpt: as §1

[3] = target: Mitogen-activated protein kinase 8 (Homo sapiens, UniProt P45983)
Mitogen-activated protein kinase 8, sequence (P45983 whole entry): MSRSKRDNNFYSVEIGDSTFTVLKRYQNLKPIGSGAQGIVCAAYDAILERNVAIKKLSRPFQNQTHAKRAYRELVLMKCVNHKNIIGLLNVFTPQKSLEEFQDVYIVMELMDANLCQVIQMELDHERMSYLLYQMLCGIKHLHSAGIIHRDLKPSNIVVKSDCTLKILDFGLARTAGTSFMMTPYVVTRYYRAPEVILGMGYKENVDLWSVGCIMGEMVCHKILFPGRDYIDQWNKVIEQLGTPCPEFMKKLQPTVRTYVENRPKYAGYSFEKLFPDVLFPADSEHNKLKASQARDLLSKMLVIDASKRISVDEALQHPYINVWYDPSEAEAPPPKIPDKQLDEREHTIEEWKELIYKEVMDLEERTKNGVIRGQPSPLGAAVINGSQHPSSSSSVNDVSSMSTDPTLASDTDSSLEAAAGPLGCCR
Excerpt: as §1

Mitogen-activated protein kinase 9, sequence (P45984 whole entry): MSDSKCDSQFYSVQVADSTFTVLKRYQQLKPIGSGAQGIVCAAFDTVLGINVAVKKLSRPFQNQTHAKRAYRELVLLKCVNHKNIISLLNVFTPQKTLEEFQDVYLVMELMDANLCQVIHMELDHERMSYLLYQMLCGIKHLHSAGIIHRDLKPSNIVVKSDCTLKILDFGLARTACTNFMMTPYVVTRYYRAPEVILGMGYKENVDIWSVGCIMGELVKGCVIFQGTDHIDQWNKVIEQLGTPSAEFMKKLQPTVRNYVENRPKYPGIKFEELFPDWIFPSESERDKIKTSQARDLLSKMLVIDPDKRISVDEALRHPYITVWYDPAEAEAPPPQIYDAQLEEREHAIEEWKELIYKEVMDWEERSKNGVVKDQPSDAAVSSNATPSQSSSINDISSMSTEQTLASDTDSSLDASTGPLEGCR
Mitogen-activated protein kinase 10, sequence (P53779 whole entry): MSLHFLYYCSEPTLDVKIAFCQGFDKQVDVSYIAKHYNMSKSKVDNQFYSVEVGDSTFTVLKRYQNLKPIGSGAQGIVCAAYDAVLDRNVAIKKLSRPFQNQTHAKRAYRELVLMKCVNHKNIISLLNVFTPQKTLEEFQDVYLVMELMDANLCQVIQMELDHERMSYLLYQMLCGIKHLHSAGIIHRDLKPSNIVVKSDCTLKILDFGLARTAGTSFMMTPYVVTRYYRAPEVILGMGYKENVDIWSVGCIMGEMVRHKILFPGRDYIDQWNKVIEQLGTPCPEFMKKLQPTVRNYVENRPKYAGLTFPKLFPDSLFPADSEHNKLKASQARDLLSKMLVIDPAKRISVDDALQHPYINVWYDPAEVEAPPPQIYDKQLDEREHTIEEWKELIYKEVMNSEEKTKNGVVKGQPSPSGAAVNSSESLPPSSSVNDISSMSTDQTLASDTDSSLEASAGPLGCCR

SMILES	IC50 [1] [nM]	IC50 [2] [nM]	IC50 [3] [nM]
O=C1c2ccccc2-c2n[nH]c3cccc1c23	190	–	–
Cc1ccc(NC(=O)c2ccc(NC(=O)/C=C/CN(C)C)cc2)cc1Nc1nccc(-c2cccnc2)n1 [JNK-IN-1]	7750	4230	7780
CN(C)C/C=C/C(=O)Nc1ccc(C(=O)Nc2cccc(Nc3nccc(-c4cccnc4)n3)c2)cc1 [JNK-IN-2]	–	1140	809
CN(C)C/C=C/C(=O)Nc1ccc(C(=O)Nc2cccc(Oc3nccc(-c4cccnc4)n3)c2)cc1 [JNK-IN-3]	> 10000	> 10000	> 10000
CN(C)C/C=C/C(=O)NCc1ccc(C(=O)Nc2cccc(Nc3nccc(-c4cccnc4)n3)c2)cc1 [JNK-IN-4]	7220	5460	2390
CN(C)C/C=C/C(=O)Nc1cccc(C(=O)Nc2ccc(Nc3nccc(C(C#N)c4nc5ccccc5s4)n3)cc2)c1 (configuration not stated) [JNK-IN-12]	11	11.3	13
N#CC(c1ccnc(NCCc2cccnc2)n1)c1nc2ccccc2s1 (configuration not stated) [[3H-Benzothiazol-(2Z)-ylidene]-[2-(2-pyridin-3-yl-ethylamino)-pyrimidin-4-yl]-acetonitrile]	–	220	150
